Measurements taken from patent publication US7329651B2 (priority 2001, dated 2008).
pIC50, pKi: −log10 of the molar value. Like-named read-outs stand apart in the source and are kept apart here.

How the values were obtained:
[1] = target: T1, CB2 receptor (Mus musculus, UniProt P47936); test: biochemical; assay type: binding; details: for Ki: mouse spleen membranes, [3H] CP-55,940, read-out: Ki(nM) CB2; for Selectivity for CB2: ratio of CB1 Ki to CB2 Ki
T1 construct: membranes were prepared from frozen mouse spleen; from tissue; host or cells: mouse spleen
T1 sequence (P47936 whole entry): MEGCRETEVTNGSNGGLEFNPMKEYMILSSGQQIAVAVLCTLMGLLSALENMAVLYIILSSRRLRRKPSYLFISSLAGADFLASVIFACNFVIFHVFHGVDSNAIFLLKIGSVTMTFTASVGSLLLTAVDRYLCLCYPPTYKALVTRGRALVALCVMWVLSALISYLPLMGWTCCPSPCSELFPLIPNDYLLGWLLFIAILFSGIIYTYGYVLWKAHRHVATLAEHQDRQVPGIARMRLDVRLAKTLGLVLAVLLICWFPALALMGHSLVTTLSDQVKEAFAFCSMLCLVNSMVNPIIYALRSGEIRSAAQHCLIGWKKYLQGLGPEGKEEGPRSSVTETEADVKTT
Method: (§1) The prepared cannabinoid compounds were tested for CB2 receptor binding affinity and for CB1 receptor affinity (to determine selectivity for the CB2 receptor). As used herein, “binding affinity” is represented by the IC50 value which is the concentration of an analog required to occupy the 50% of the total number (Bmax) of the receptors. The lower the IC50 value, the higher the binding affinity. […] The binding affinities (Ki) are expressed in nanomoles (nM).
(§2) The treated membranes were subsequently used in the binding assay described below. Approximately 30 μg of membranes were incubated in silanized 96-well microtiter plate with TME containing 0.1% essentially fatty acid-free bovine serum albumin (BSA), 0.8 nM [^3H] CP-55,940, and various concentrations of test materials at 30° C. for 1 hour. The samples were immediately filtered using a Packard Filtermate 196 and Whatman GF/C filterplates and washed with wash buffer (TME) containing 0.5% BSA. Radioactivity was detected using MicroScint 20 scintillation cocktail added directly to the dried filterplates, and the filterplates were counted using a Packard Instruments Top-Count. Nonspecific binding was assessed using 100 nM CP-55,940. Data collected from three independent experiments performed with duplicate determinations was normalized between 100% and 0% specific binding for [^3H] CP-55,940, determined using buffer and 100 nM CP-55,940. The normalized data was analyzed using a 4-parameter nonlinear logistic equation to yield IC50 values. Data from at least two independent experiments performed in duplicate was used to calculate IC50 values which were converted to Ki values using the using the assumptions of Cheng et al; “Relationship Between the Inhibition Constant (Ki) and the concentration of Inhibitor which causes 50% Inhibition (IC50) of an Enzymatic Reaction”, Biochem. Pharmacol., 22, 3099-3102, (1973), which is incorporated by reference herein.
For the CB2 receptor binding studies, membranes were prepared from frozen mouse spleen essentially according to the procedure of P. R. Dodd et al; “A Rapid Method for Preparing Synaptosomes: Comparison with Alternative Procedures”, Brain Res., 226, 107-118 (1981) which is incorporated by reference herein. Silanized centrifuge tubes were used throughout to minimize receptor loss due to adsorption. The CB2 binding assay was conducted in the same manner as the CB1 binding assay. The binding affinities (Ki) were also expressed in nanomoles (nM).

[2] = target: T2, CB1 cannabinoid receptor (Rattus norvegicus, UniProt P20272); test: CB1 receptor binding, [3H] CP-55,940 displacement, rat forebrain membranes; details: for Ki: rat forebrain membranes, 0.8 nM [3H] CP-55,940, read-out: Ki(nM) CB1
T2 construct: membranes were prepared from rat forebrain membranes; from tissue; host or cells: rat forebrain
T2 sequence (P20272 whole entry): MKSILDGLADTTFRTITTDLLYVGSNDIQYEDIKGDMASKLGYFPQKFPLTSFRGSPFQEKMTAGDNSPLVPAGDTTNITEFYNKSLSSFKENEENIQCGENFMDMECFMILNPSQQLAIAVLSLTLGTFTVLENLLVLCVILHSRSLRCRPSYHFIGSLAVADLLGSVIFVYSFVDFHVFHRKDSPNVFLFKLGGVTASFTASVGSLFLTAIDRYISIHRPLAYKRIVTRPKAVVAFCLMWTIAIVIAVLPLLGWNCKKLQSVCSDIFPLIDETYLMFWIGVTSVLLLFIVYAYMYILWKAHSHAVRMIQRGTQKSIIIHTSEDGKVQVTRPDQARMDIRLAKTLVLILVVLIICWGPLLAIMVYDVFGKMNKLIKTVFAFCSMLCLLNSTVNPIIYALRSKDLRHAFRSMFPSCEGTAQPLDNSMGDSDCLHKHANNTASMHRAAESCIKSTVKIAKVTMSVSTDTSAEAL
Method: as §1
For the CB1 receptor binding studies, membranes were prepared from rat forebrain membranes according to the procedure of P. R. Dodd et al; A Rapid Method for Preparing Synaptosomes: Comparison with Alternative Procedures, Brain Res., 107-118 (1981). The binding of the novel analogues to the CB1 cannabinoid receptor was assessed as described in W. A. Devane et al; Determination and Characterization of a Cannabinoid Receptor in a Rat Brain, Mol. Pharmacol., 34, 605-613 (1988) and A. Charalambous et al; “5′-azido ^8−THC: A Novel Photoaffinity Label for the Cannabinoid Receptor”, J. Med. Chem., 35, 3076-3079 (1992) with the following changes. The above articles are incorporated by reference herein.
Membranes, previously frozen at −80° C., were thawed on ice. To the stirred suspension was added three volumes of TME (25 mM Tris-HCl buffer, 5 mM MgCl2 and 1 mM EDTA) at a pH 7.4. The suspension was incubated at 40° C. for 30 min. At the end of the incubation, the membranes were pelleted and washed three times with TME.
as §2

[3] = target: CB2 (Homo sapiens, UniProt P34972); test: Intracellular cyclic AMP levels, comparative protein binding assay (adenylate cyclase inhibition); assay type: cell-based; details: intracellular cAMP
Sequence of CB2 (P34972 whole entry, species assumed, the tested form may be a part): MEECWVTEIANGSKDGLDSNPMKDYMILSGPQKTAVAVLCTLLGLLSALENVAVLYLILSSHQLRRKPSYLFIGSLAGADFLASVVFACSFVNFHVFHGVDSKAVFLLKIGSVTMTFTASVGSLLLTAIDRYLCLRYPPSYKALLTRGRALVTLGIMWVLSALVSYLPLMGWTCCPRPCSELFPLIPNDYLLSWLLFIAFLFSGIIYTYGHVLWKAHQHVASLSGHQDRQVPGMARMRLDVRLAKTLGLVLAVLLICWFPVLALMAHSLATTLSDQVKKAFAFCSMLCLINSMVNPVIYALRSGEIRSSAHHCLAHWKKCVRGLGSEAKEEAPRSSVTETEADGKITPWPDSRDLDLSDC
Method: Intracellular cyclic AMP (cAMP) levels are measured with a comparative protein binding assay (materials available from Diagnostic Products, Inc. of Carlsbad, Calif.) generally according to the method described in Tao, Q. and M. E. Abood; “Mutation of a highly conserved aspartate residue in the second transmembrane domain of the cannabinoid receptors, CB1 and CB2, disrupts G-protein coupling”, J Pharmacol Exp Ther, 1998, 285(2): pp. 651-658, which is incorporated by reference herein. […] The IC50 value for Compound 2 was 8 nM.

CCOC(=O)C1=NN(C(=O)c2ccccc2I)C(C(=O)OCC)=NN1C(=O)c1ccccc1I
melting point: 186 to 187 °C

CCOC(=O)c1nnc(C(=O)OCC)c2c1[nH]c1ccccc12
melting point: 151 to 152 °C

COC(=O)C1=NN(c2ccccc2)C(C(=O)OC)=NN1c1ccccc1 [compound 1, Dimethyl 1,4-diphenyl-1,4-dihydro-1,2,4,5-tetrazine-3,6-dicarboxylate]
Ki [1]: 381 nM
Selectivity for CB2 [1]: 81
Ki [2]: 31000 nM
melting point: 171 to 172 °C

CCOC(=O)C1=NN(c2ccccc2)C(C(=O)OCC)=NN1c1ccccc1 [compound 2]
Ki [1]: 19 nM
Selectivity for CB2 [1]: 88
Ki [2]: 1670 nM
effect on formation of cyclic AMP ([3]; adenylate cyclase): reduce formation of cyclic AMP by inhibiting adenylate cyclase
pIC50 ([3]; read-out: IC50 value, reduction of cyclic AMP formation): 8.10

CCCOC(=O)C1=NN(c2ccccc2)C(C(=O)OCCC)=NN1c1ccccc1 [compound 3, Dipropyl-1,4-diphenyl-1,4-dihydro-1,2,4,5-tetrazine-3,6-dicarboxylate]
Ki [1]: 23.3 nM
Selectivity for CB2 [1]: 27
Ki [2]: 618 nM
melting point: 82.5 to 83 °C

CC(=O)C1=NN(c2ccccc2)C(C(C)=O)=NN1c1ccccc1 [compound 4, 1,4-Diphenyl-1,4-dihydro-3,6-diacetyl-1,2,4,5-tetrazine]
pKi [1]: 5.00
Selectivity for CB2 [1]: 1
Ki [2]: 10000 nM

NC(=O)C1=NN(c2ccccc2)C(C(N)=O)=NN1c1ccccc1 [compound 5]
Ki [1]: 10000 nM
Selectivity for CB2 [1]: 1
Ki [2]: 10000 nM

CN(C)C(=O)C1=NN(c2ccccc2)C(C(N)=O)=NN1c1ccccc1 [compound 6, N,N-Dimethyl-1,4-diphenyl-1,4-dihydro-1,2,4,5-tetrazine-3,6-dicarboxylic di-amide]
melting point: 243 to 243.5 °C

CNC(=O)C1=NN(c2ccccc2)C(C(=O)NC)=NN1c1ccccc1 [compound 6]
Selectivity for CB2 [1]: 1
Ki [2]: 66000 nM

CCN(CC)C(=O)C1=NN(c2ccccc2)C(C(N)=O)=NN1c1ccccc1 [compound 7, N,N-Diethyl-1,4-diphenyl-1,4-dihydro-1,2,4,5-tetrazine-3,6-dicarboxylic di-amide]
melting point: 239 to 240 °C

CCNC(=O)C1=NN(c2ccccc2)C(C(=O)NCC)=NN1c1ccccc1 [compound 7]
Selectivity for CB2 [1]: 1
Ki [2]: 100000 nM

O=C(C1=NN(c2ccccc2)C(C(=O)N2CCCCC2)=NN1c1ccccc1)N1CCCCC1 [compound 9]
Ki [1]: 221 nM
Selectivity for CB2 [1]: 42
Ki [2]: 9990 nM

CC(CO)NC(=O)C1=NN(c2ccccc2)C(C(=O)NC(C)CO)=NN1c1ccccc1 (stereo not shown) [compound 10]
Selectivity for CB2 [1]: 1
Ki [2]: 100000 nM
melting point: 262 to 263 °C

CC1C(NC(=O)C2=NN(c3ccccc3)C(C(=O)NC3CC4CC(C3C)C4(C)C)=NN2c2ccccc2)CC2CC1C2(C)C (stereo not shown) [compound 11]
Selectivity for CB2 [1]: 1
pKi [2]: 4.00

CCOC(=O)C1=NN(c2ccccc2)C(C(C)=O)=NN1c1ccccc1 [compound 12, 1,4-Diphenyl-1,4-dihydro-1,2,4,5-tetrazine-3-aceto-6-carboxylic acid ethyl ester]
Ki [1]: 327 nM
Selectivity for CB2 [1]: 24
Ki [2]: 7700 nM

CCOC(=O)C1=NN(c2ccccc2)C(C(=O)N2CCCCC2)=NN1c1ccccc1 [compound 13, 1,4-Diphenyl-1,4-dihydro-1,2,4,5-tetrazine-3-carboxylic N-isopinocampheyl amide-6-carboxylic ethyl ester]
Ki [1]: 255 nM
Selectivity for CB2 [1]: 20
Ki [2]: 5040 nM

CCOC(=O)C1=NN(c2ccccc2)C(C(=O)NC2CC3CC(C2C)C3(C)C)=NN1c1ccccc1 (stereo not shown) [compound 14, 1,4-Diphenyl-1,4-dihydro-1,2,4,5-tetrazine-3-carboxylic N-piperidinyl amide-6-carboxylic acid ethyl ester]
Ki [1]: 805 nM
Selectivity for CB2 [1]: 2.6
pKi [2]: 5.69

CCOC(=O)C1=NN(c2ccc([N+](=O)[O-])cc2)C(C(=O)OCC)=NN1c1ccc([N+](=O)[O-])cc1 [compound 15]
pKi [2]: 4.00

CCOC(=O)C1=NN(c2ccc(Cl)cc2)C(C(=O)OCC)=NN1c1ccc(Cl)cc1 [compound 16, 1,4-Di-(4-chlorophenyl)-1,4-dihydro-1,2,4,5-tetrazine-3,6-dicarboxylic acid diethyl ester]
Ki [1]: 48 nM
Selectivity for CB2 [1]: 4.3
Ki [2]: 208 nM

CCOC(=O)C1=NN(c2ccc(Br)cc2)C(C(=O)OCC)=NN1c1ccc(Br)cc1 [compound 17]
Ki [1]: 200 nM
Ki [2]: 350 nM

CCOC(=O)C1=NN(c2ccc(OC)cc2)C(C(=O)OCC)=NN1c1ccc(OC)cc1 [compound 18]
Ki [1]: 72 nM
Selectivity for CB2 [1]: 64
Ki [2]: 4590 nM

CCOC(=O)C1=NN(c2ccc(Cl)cc2Cl)C(C(=O)OCC)=NN1c1ccc(Cl)cc1Cl [compound 19]
Ki [1]: 10000 nM
Selectivity for CB2 [1]: 1
Ki [2]: 10000 nM

CCOC(=O)C1=NN(c2cccc3ccccc23)C(C(=O)OCC)=NN1c1cccc2ccccc12 [compound 20, 1,4-Di-(α-naphthalene)-1,4-dihydro-1,2,4,5-tetrazine-3,6-dicarboxylic acid diethyl ester]
Ki [1]: 1910 nM
Selectivity for CB2 [1]: 524
Ki [2]: 1e+06 nM
melting point: 129 to 130 °C

CCOC(=O)C1=NN(C(=O)c2ccccc2)C(C(=O)OCC)=NN1C(=O)c1ccccc1 [compound 21, 1,4-Dibenzoyl-1,4-dihydro-1,2,4,5-tetrazine-3,6-dicarboxylic acid diethyl ester]
Selectivity for CB2 [1]: 1
Ki [2]: 100000 nM
melting point: 133.5 to 134 °C

CCOC(=O)C1=NN(c2ccc(Cl)cc2)C(C(=O)OCC)=NN1c1ccccc1 [compound 22, 1-(4-chlorophenyl)-4-phenyl-1,4-dihydro-1,2,4,5-tetrazine-3,6-dicarboxylic acid diethyl ester]
Ki [1]: 43 nM
Selectivity for CB2 [1]: 34
Ki [2]: 1500 nM

CCOC(=O)C1=NN(c2ccc(Br)cc2)C(C(=O)OCC)=NN1c1ccc(Cl)cc1 [compound 23]
Ki [1]: 30 nM
Selectivity for CB2 [1]: 18
Ki [2]: 542 nM
melting point: 130 to 131 °C

CCOC(=O)C1=NN(c2cccc3ccccc23)C(C(=O)OCC)=NN1c1ccccc1 [compound 24, 1-Phenyl-4-α-naphthalenyl-1,4-dihydro-1,2,4,5-tetrazine-3,6-dicarboxylic acid diethyl ester]
Ki [1]: 182 nM
Selectivity for CB2 [1]: 40
Ki [2]: 7360 nM

N,N-Dibutyl-1,4-diphenyl-1,4-dihydro-1,2,4,5-tetrazine-3,6-dicarboxylic di-amide [compound 8]
Ki [1]: 692 nM
Selectivity for CB2 [1]: 23
Ki [2]: 16000 nM
